Assay results published in patent US9527850B2, “Benzyl piperidine compounds as lysophosphatidic acid (LPA) receptor antagonist” (Merck Patent GmbH, priority 2011, dated 2016).

Biological target: T1, LPA2 receptor (LPA2R) (Homo sapiens, UniProt Q9HBW0)
T1 construct: expressed in transfected cells; host or cells: U2OS
Assay: LPA2R-Calciumflux assay (intracellular calcium mobilisation, FLIPR)
Assay type: cell-based
Conditions: U2OS cells recombinant expressing LPA2R; inhibition of LPA-induced Ca-flux; 10 concentrations 30 uM to 1 nM, 1% DMSO
Description: The assay detects intra cellular calcium which is generated by cells upon activation of the LPA2 receptor by its ligand LPA. This transient calcium mobilization can be monitored using a commercial calcium detection kit (e.g. from Molecular Devices). The main component of such a kit is a dye, which becomes fluorescent when calcium is present—a transient fluorescence signal after laddition of a ligand to a test well are the result. Readers like the FLIPR (Molecular Devices) can be used to monitor such transient “Ca-flux” signals.
The signals are calculated according to peak maximum minus base line.
The assay is performed in microplates (384 wells per plate).
LPA2R-Calciumflux Assay Protocol
The assay is run according to the following procedure: • 50 uL seed cells (10000 cells/well in DMEM buffer) • Incubate 24 h at 37° C., 10% CO2 • aspirate medium • 50 uL add calcium dye 1×HBSS/HEPES buffer • incubate 1 h at 37° C. (“loading”) • equilibrate 10 min at RT • 5 uL add compounds in HEPES buffer • shake 10 sec. at 1000 rpm • incubate 15 min at RT • 20 uL add LPA (in the FLIPR Tetra) in Krebs-buffer/BSA & measurement
The cells are seeded in DMEM buffer (DMEM, 10% FCS, 10 mM HEPES, 1% Pen/Strep).
Dye loading is done in HBSS/HEPES buffer (100 mL 10×HBSS+20 mL 1M HEPES+880 mL water, pH 7.4)
The LPA is added in Krebs/BSA buffer (120 mM NaCl, 5 mM KCl, 0.62 mM MgSO4, 1.8 mM CaCl2, 10 mM HEPES, 6 mM D(+)-Glucose, 0.2% BSA, pH 7.4).
The compounds are pre-diluted in HEPES buffer (20 mM, pH 7.4), whereby the final DMSO content in the assay is kept at 1%. The compounds are pre-diluted in order to generate dose response series on the microplates. The dose response series consist of 10 concentrations for each compound from 30 uM final to 1 nM final. From all compound wells the resulting signals are referred to control wells (located on each plate besides the compound wells) in terms of % activity.
From these % activity values—along with the corresponding compound concentrations—IC50 values are fitted for each compound using standard fitting programs such as Graphpad Prism. Here the method “log(inhibitor) vs. response—Variable slope” is used.

T1 sequence (Q9HBW0 whole entry): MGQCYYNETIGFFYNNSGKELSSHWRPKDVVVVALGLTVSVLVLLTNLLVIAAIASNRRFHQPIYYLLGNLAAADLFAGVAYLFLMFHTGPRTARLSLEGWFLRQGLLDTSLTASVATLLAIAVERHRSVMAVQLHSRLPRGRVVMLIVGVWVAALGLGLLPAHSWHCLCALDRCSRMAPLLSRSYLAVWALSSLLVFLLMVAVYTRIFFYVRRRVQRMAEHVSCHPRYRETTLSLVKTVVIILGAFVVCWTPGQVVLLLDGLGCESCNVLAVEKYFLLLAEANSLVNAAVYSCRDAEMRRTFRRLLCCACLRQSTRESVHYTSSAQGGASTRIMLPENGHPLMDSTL

Question: Which IC50 does the source give for `Fc1ccc(CN2CCCCC2c2nc3cc(F)ccc3[nH]2)cc1` (stereo not shown) [compound 49, 5-Fluoro-2-[1-(4-fluoro-benzyl)-piperidin-2-yl]-1H-benzo-imidazole] here?
Answer: Its IC50 is less than 500 nM.

Question: For `Cc1ccc(CN2CCCCC2c2cc3ccccc3o2)cc1C` (stereo not shown) [compound 50, 2-Benzofuran-2-yl-1-(3,4-dimethyl-benzyl)-piperidine], which IC50 is on record?
Answer: The IC50 was 500 to 5000 nM.

Question: `Cc1ccc(CN2CCCCC2c2nc3cc(F)ccc3[nH]2)cc1C` (stereo not shown) [compound 51, 2-[1-(3,4-Dimethyl-benzyl)-piperidin-2-yl]-5-fluoro-1H-benzo-imidazole] was tested. Which IC50 did it give?
Answer: The IC50 was less than 500 nM.

Question: With `Cc1ccc(CN2CCCCC2c2nc3ccccc3s2)cc1C` (stereo not shown) [compound 52, 2-[1-(3,4-Dimethyl-benzyl)-piperidin-2-yl]-benzo-thiazole] as the compound, how does the IC50 read?
Answer: The IC50 was 5000 to 15000 nM.

Question: With `Fc1ccc2[nH]c(C3CCCCN3Cc3cccc(Cl)c3Cl)cc2c1` (stereo not shown) [compound 54, 2-[1-(2,3-Dichloro-benzyl)-piperidin-2-yl]-5-fluoro-1H-indole] as the compound, how does the IC50 read?
Answer: The IC50 was 500 to 5000 nM.

Question: With `COc1cc(CN2CCCCC2c2cc3cc(F)ccc3[nH]2)cc(OC)c1` (stereo not shown) [compound 55, 2-[1-(3,5-Dimethoxy-benzyl)-piperidin-2-yl]-5-fluoro-1H-indole] as the compound, how does the IC50 read?
Answer: The IC50 was 500 to 5000 nM.

Question: For `Fc1ccc2[nH]c(C3CCCCN3Cc3ccccn3)cc2c1` (stereo not shown) [compound 56, 5-Fluoro-2-(1-pyridin-2-ylmethyl-piperidin-2-yl)-1H-indole], which IC50 is on record?
Answer: Its IC50 is 500 to 5000 nM.

Question: With `Fc1ccc2[nH]c(C3CCCCN3Cc3cccc(Br)c3)cc2c1` (stereo not shown) [compound 57, 2-[1-(3-Bromo-benzyl)-piperidin-2-yl]-5-fluoro-1H-indole] as the compound, how does the IC50 read?
Answer: The IC50 was 500 to 5000 nM.

Question: `Fc1ccc2[nH]c(C3CCCCN3Cc3ccc(Br)cc3)cc2c1` (stereo not shown) [compound 58, 2-[1-(4-Bromo-benzyl)-piperidin-2-yl]-5-fluoro-1H-indole] was tested. Which IC50 did it give?
Answer: Its IC50 is 500 to 5000 nM.

Question: With `Fc1ccc2[nH]c(C3CCCCN3Cc3ccc(Cl)cc3Cl)cc2c1` (stereo not shown) [compound 59, 2-[1-(2,4-Dichloro-benzyl)-piperidin-2-yl]-5-fluoro-1H-indole] as the compound, how does the IC50 read?
Answer: Its IC50 is 5000 to 15000 nM.

Question: For `Fc1ccc2[nH]c(C3CCCCN3Cc3ccc(Cl)c(Cl)c3)cc2c1` (stereo not shown) [compound 60, 2-[1-(3,4-Dichlorobenzyl)-piperidin-2-yl]-5-fluoro-1H-indole], which IC50 is on record?
Answer: The IC50 was 5000 to 15000 nM.

Question: With `CC1CCC(c2cc3cc(F)ccc3[nH]2)N(Cc2ccc(F)cc2)C1` (stereo not shown) [compound 61, 5-Fluoro-2-[1-(4-fluoro-benzyl)-5-methyl-piperidin-2-yl]-1H-indole] as the compound, how does the IC50 read?
Answer: Its IC50 is 500 to 5000 nM.

Question: How did the IC50 turn out when `COc1cccc(CN2CC(C)CCC2c2cc3cc(F)ccc3[nH]2)c1` (stereo not shown) [compound 62, 5-Fluoro-2-[1-(3-methoxy-benzyl)-5-methyl-piperidin-2-yl]-1H-indole] was run?
Answer: Its IC50 is 5000 to 15000 nM.

Question: For `Fc1ccc2[nH]c(C3CCCCN3Cc3c[nH]c4ccccc34)cc2c1` (stereo not shown) [compound 63, 5-Fluoro-2-[1-(1H-indol-3-ylmethyl)-piperidin-2-yl]-1H-indole], which IC50 is on record?
Answer: Its IC50 is 500 to 5000 nM.

Question: For `COc1ccc(CN2CCC(C)CC2c2cc3cc(F)ccc3[nH]2)cc1` (stereo not shown) [compound 64, 5-Fluoro-2-[1-(4-methoxy-benzyl)-4-methyl-piperidin-2-yl]-1H-indole], which IC50 is on record?
Answer: The IC50 was 500 to 5000 nM.

Question: Which IC50 does the source give for `Cc1ccc2c(c1)c(CN1CCCCC1c1cc3cc(F)ccc3[nH]1)cn2C` (stereo not shown) [compound 65, 3-[2-(5-Fluoro-1H-indol-2-yl)-piperidin-1-ylmethyl]-1,5-dimethyl-1H-indole] here?
Answer: Its IC50 is 500 to 5000 nM.

Question: For `Cc1ccc2c(CN3CCCCC3c3cc4cc(F)ccc4[nH]3)cn(C)c2c1` (stereo not shown) [compound 66, 3-[2-(5-Fluoro-1H-indol-2-yl)-piperidin-1-ylmethyl]-1,6-dimethyl-1H-indole], which IC50 is on record?
Answer: Its IC50 is 500 to 5000 nM.

Question: Which IC50 does the source give for `Brc1ccc(CN2CCCCC2c2cc3ccccc3[nH]2)cc1` (stereo not shown) [compound 67, 2-[1-(4-Bromo-benzyl)-piperidin-2-yl]-1H-indole] here?
Answer: The IC50 was 500 to 5000 nM.

Question: `COc1ccc(CN2CCC(C)CC2c2cc3ccccc3[nH]2)cc1` (stereo not shown) [compound 68, 2-[1-(4-Methoxy-benzyl)-4-methyl-piperidin-2-yl]-1H-indole] was tested. Which IC50 did it give?
Answer: The IC50 was 500 to 5000 nM.

Question: How did the IC50 turn out when `Cc1cc(C)c2cc(C3CCCCN3Cc3ccc(F)cc3)[nH]c2c1` (stereo not shown) [compound 69, 2-[1-(4-Fluoro-benzyl)-piperidin-2-yl]-4,6-dimethyl-1H-indole] was run?
Answer: The IC50 was 500 to 5000 nM.

Question: For `Cc1ccc2[nH]c(C3CCCCN3Cc3ccc(F)cc3)cc2c1` (stereo not shown) [compound 70], which IC50 is on record?
Answer: Its IC50 is 500 to 5000 nM.

Question: Which IC50 does the source give for `COc1cccc(CN2CCCCC2c2cc3cc(C)ccc3[nH]2)c1` (stereo not shown) [compound 71, 2-[1-(3-Methoxy-benzyl)-piperidin-2-yl]-5-methyl-1H-indole] here?
Answer: The IC50 was 500 to 5000 nM.

Question: For `CC(c1ccc(F)cc1)N1CCCCC1c1cc2cc(F)ccc2[nH]1` (stereo not shown) [compound 72, 5-Fluoro-2-{1-[1-(4-fluoro-phenyl)-ethyl]-piperidin-2-yl}-1H-indole], which IC50 is on record?
Answer: The IC50 was less than 500 nM.

Question: With `COc1ccc(CN2CCCCC2c2cc3cc(Cl)ccc3[nH]2)cc1` (stereo not shown) [compound 73, 5-Chloro-2-[1-(4-methoxy-benzyl)-piperidin-2-yl]-1H-indole] as the compound, how does the IC50 read?
Answer: The IC50 was less than 500 nM.

Question: With `COc1cccc(CN2CCC(C)CC2c2cc3cc(Cl)ccc3[nH]2)c1` (stereo not shown) [compound 74, 5-Chloro-2-[1-(3-methoxy-benzyl)-4-methyl-piperidin-2-yl]-1H-indole] as the compound, how does the IC50 read?
Answer: Its IC50 is 500 to 5000 nM.

Question: How did the IC50 turn out when `Cc1c(C2CCCCN2Cc2ccc(F)cc2)[nH]c2ccc(F)cc12` (stereo not shown) [compound 75, 5-Fluoro-2-[1-(4-fluoro-benzyl)-piperidin-2-yl]-3-methyl-1H-indole] was run?
Answer: The IC50 was less than 500 nM.

Question: Which IC50 does the source give for `COc1ccc(CN2CCCC(C)C2c2cc3c4c(ccc3[nH]2)CCC4)cc1` (stereo not shown) [compound 76, 2-[1-(4-Methoxy-benzyl)-3-methyl-piperidin-2-yl]-3,6,7,8-tetrahydro-cyclopenta [e]indole] here?
Answer: Its IC50 is 5000 to 15000 nM.

Question: `Cc1ccc(CN2CCC(C)CC2c2cc3ccccc3[nH]2)cc1C` (stereo not shown) [compound 79, 2-[1-(3,4-Dimethyl-benzyl)-4-methyl-piperidin-2-yl]-1H-indole] was tested. Which IC50 did it give?
Answer: The IC50 was 500 to 5000 nM.

Question: With `CC1CCCN(Cc2ccc(F)cc2)C1c1cc2ccccc2[nH]1` (stereo not shown) [compound 81, 2-[1-(4-Fluoro-benzyl)-3-methyl-piperidin-2-yl]-1H-indole] as the compound, how does the IC50 read?
Answer: Its IC50 is 500 to 5000 nM.

Question: For `COc1cccc(CN2CCCCC2c2cc3cc(OC)ccc3[nH]2)c1` (stereo not shown) [compound 82, 5-Methoxy-2-[1-(3-methoxy-benzyl)-piperidin-2-yl]-1H-indole], which IC50 is on record?
Answer: The IC50 was less than 500 nM.

Question: With `COc1ccc2[nH]c(C3CC(C)CCN3Cc3ccc(C)c(C)c3)cc2c1` (stereo not shown) [compound 83, 2-[1-(3,4-Dimethyl-benzyl)-4-methyl-piperidin-2-yl]-5-methoxy-1H-indole] as the compound, how does the IC50 read?
Answer: Its IC50 is 500 to 5000 nM.

Question: For `Cc1cc(C)cc(CN2CCCCC2c2cc3cc(F)ccc3[nH]2)c1` (stereo not shown) [compound 84, 2-[1-(3,5-Dimethyl-benzyl)-piperidin-2-yl]-5-fluoro-1H-indole], which IC50 is on record?
Answer: The IC50 was less than 500 nM.

Question: With `CCc1nc(CN2CCCCC2c2cc3cc(F)ccc3[nH]2)cs1` (stereo not shown) [compound 85] as the compound, how does the IC50 read?
Answer: Its IC50 is less than 500 nM.

Question: For `N#Cc1cccc(CN2CCCCC2c2cc3cc(F)ccc3[nH]2)c1` (stereo not shown) [compound 86, 3-[2-(5-Fluoro-1H-indol-2-yl)-piperidin-1-ylmethyl]-benzonitrile], which IC50 is on record?
Answer: The IC50 was 500 to 5000 nM.

Question: For `Cc1ccc(CN2CCC(C)CC2c2cc3cc(F)ccc3[nH]2)cc1C` (stereo not shown) [compound 87, 2-[1-(3,4-Dimethyl-benzyl)-4-methyl-piperidin-2-yl]-5-fluoro-1H-indole], which IC50 is on record?
Answer: The IC50 was less than 500 nM.

Question: With `Cc1ccc(CN2CCCCC2c2nc3ccc(Cl)cc3[nH]2)cc1C` (stereo not shown) [compound 88, 6-Chloro-2-[1-(3,4-dimethyl-benzyl)-piperidin-2-yl]-1H-benzo-imidazole] as the compound, how does the IC50 read?
Answer: Its IC50 is less than 500 nM.

Question: How did the IC50 turn out when `FC(F)(F)c1cccc(CN2CCCCC2c2nc3ccc(Cl)cc3[nH]2)c1` (stereo not shown) [compound 89] was run?
Answer: Its IC50 is 500 to 5000 nM.

Question: `Cc1ccc(CN2CCCCC2c2nc3ccc(Cl)cc3[nH]2)cc1C(F)(F)F` (stereo not shown) [compound 90] was tested. Which IC50 did it give?
Answer: Its IC50 is 500 to 5000 nM.

Question: Which IC50 does the source give for `Cc1cccc(CN2CCCCC2c2nc3ccc(Cl)cc3[nH]2)c1` (stereo not shown) [compound 91, 6-Chloro 2-[1-(3-methyl-benzyl)-piperidin-2-yl]-1H-benzo-imidazole] here?
Answer: The IC50 was less than 500 nM.

Question: How did the IC50 turn out when `FC(F)(F)c1cccc(CN2CCCCC2c2nc3ccc(Br)cc3[nH]2)c1` (stereo not shown) [compound 92] was run?
Answer: Its IC50 is 500 to 5000 nM.

Question: How did the IC50 turn out when `Cc1ccc(CN2CCCCC2c2nc3ccc(Br)cc3[nH]2)cc1C(F)(F)F` (stereo not shown) [compound 93] was run?
Answer: Its IC50 is 500 to 5000 nM.

Question: With `CC1(C)CCC(C)(C)c2cc(CN3CCCCC3c3nc4ccc(Br)cc4[nH]3)ccc21` (stereo not shown) [compound 94, 6-Bromo-2-[1-(5,5,8,8-tetramethyl-5,6,7,8-tetrahydro-naphthalen-2-ylmethyl)-piperidin-2-yl]-1H-benzo-imidazole] as the compound, how does the IC50 read?
Answer: The IC50 was 5000 to 15000 nM.

Question: Which IC50 does the source give for `Cc1cccc(CN2CCCCC2c2nc3ccc(Br)cc3[nH]2)c1` (stereo not shown) [compound 95, 6-Bromo-2-[1-(3-methyl-benzyl)-piperidin-2-yl]-1H-benzo-imidazole] here?
Answer: Its IC50 is less than 500 nM.
